Data reported in patent publication US20240069044A1, “METHOD FOR DIAGNOSING A PREDISPOSITION OF A LIVING BEING TO DEVELOP THROMBOCYTOPENIA” (priority 2021, published 2024).

Tests used:
PF4/heparin complexes = target: T1, PF4/heparin complexes (Homo sapiens, UniProt P02776); assay: IgG PF4/heparin EIA with sera from VITT patients; format: binding; conditions: VITT sera (8/8), in the presence of high concentration of heparin; without: 2.591±0.642; p<0.0001
T1 construct: purchased Hyphen Biomed, Neuville-sur-Oise, France
T1 sequence (P02776 32-101): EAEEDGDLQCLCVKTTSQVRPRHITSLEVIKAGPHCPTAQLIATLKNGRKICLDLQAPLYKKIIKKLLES
Procedure: (§1) A commercially available IgG-Enzyme Immune Assay (EIA) was used in accordance to manufacturer's instructions (Hyphen Biomed, Neuville-sur-Oise, France). Per manufacturer's recommendations, a sample was considered reactive if the optical density (OD) was ≥0.500. The ability of sera to activate platelets was tested using the functional assay heparin induced platelet aggregation assay (HIPA) as previously described. In brief, serum was tested with washed platelets (wPLTs) from four different healthy donors in the absence (buffer alone) or in the presence of unfractionated heparin (0.2 IU/mL and 100 IU/mL, [Ratiopharm, Ulm, Germany]). Reactions were placed in microtiter wells containing spherical stir bars and stirred at approximately 500 revolutions per minute (rpm). Wells were examined optically at five-minutes (min) interval for loss of turbidity. A serum was considered reactive (positive) if a shift from turbidity to transparency occurred within 30 min in at least two platelet suspensions. Observation time was 45 min. Each test included a diluted serum from a patient with HIT as a weak positive control, collagen (5 μg/mL) as strong positive control and a serum from a healthy donor as a negative control.

[1] = test system: platelets from healthy donors; assay: IgG binding to platelets by flow cytometry after incubation with VITT sera; format: cell-based
[2] = test system: washed platelets from healthy donors; assay: Heparin induced platelet activation assay (HIPA) with modifications, VITT sera; format: cell-based; conditions: for platelet activation by VITT sera in the presence of the additive: result in words
Procedure: as §1
To investigate the ability of patients sera to activate platelets, the HIPA assay was used with several modifications. Sera were incubated with washed platelets in the presence of I) buffer, II) 0.2 IU/mL LMWH, III) 100 IU/mL UFH, IV) an Fc gamma receptor IIa (FcγRIIA)-blocking monoclonal antibody (mAb IV.3), VI) 30 mg/mL IVIG, VII) 25 μg/mL PF4, VIII) 50 μg/mL Spike-RBD, IX) PF4/Spike-RBD complexes, X) PF4+RBD or XI) ChAdOx1 nCoV-19 (XII). Conditions with PF4 and RBD were also repeated in the presence of high concentration of heparin (100 IU/mL UFH). […] (FIG. 5B). […] Antibody-mediated platelet activation was inhibited when low molecular weight heparin (LMWH) was added at low concentrations by testing three sera.

[3] = test system: washed platelets from healthy donors; assay: Antibody-mediated procoagulant platelets (CD62p/PS positive) by flow cytometry, VITT sera; format: cell-based; conditions: for FI CD62p/PS positive PLTs: VITT sera with washed platelets, 0.2 IU/mL LMWH, high concentration UFH, mAb IV.3, high concentrations of IgG, PF4 or Spike-RBD, sera alone 22.94±6.14
[4] = test system: washed platelets from healthy donors; assay: Procoagulant platelets induced by HIT patient sera, washed platelets, flow cytometry; format: cell-based; conditions: for generation of procoagulant platelets by patient sera in the presence of the additive: HIT, washed platelets (FIG. 8) or PRP (FIG. 9), 0.2 IU/mL LMWH, high concentration UFH, PF4, IV.3, result in words
Procedure: Prior to usage, all sera were heat-inactivated at 56° C. for 30 min, followed by a sharp centrifugation step at 5,000 g. The supernatant was collected in a fresh tube. For determination of procoagulant platelets, 5 μL serum was incubated with 25 μL washed platelets ([…]) for 1 h under rotating conditions at RT. Where indicated, cell suspensions were preincubated with PF4 (10 μg/ml) and Heparin (0.2 or 100 IU/ml). Afterwards, samples were washed once (7 min, 650 g, RT, without brake) and gently resuspended in 75 μL of phosphate-buffered saline (PBS, Biochrom, Berlin, Germany). Platelets were then stained with Annexin V-FITC and CD62-APC (Immunotools, Friesoythe Germany) and directly analyzed by flow cytometry (FC). Test results were determined as fold increase of the percentage of double PS/CD62p positive events in platelets upon incubation with patients' sera compared to the baseline.
37.5 μl wPLTs/PRP were supplemented with 1 μl of 10 IUs heparin (final concentration 0.2 IUs) or 1 μl of 5000 IUs heparin (final concentration 100 IUs) and 5 μL serum/IgG from HIT patients or control serum/IgG. Samples were filled up with PBS to a final volume of 50 μl and incubated for 1 hour under rotating conditions at RT. Afterwards, 5 μl of the PLT suspension were transferred into a final volume of 100 μL of Hank's balanced salt solution (HBSS) containing 137 mM NaCl, 1.25 mM CaCl2), 5.5 mM glucose, [Carl-Roth, Karlsruhe, Germany]) and incubated with 1 μL anti-CD62p-APC (BD, San Jose, USA), 1 μL Annexin-FITC (Immunotools, Friesoythe, Germany) and 2 μL anti-CD42a-PerCP (BD, San Jose, USA) for 30 min at RT in the dark. PLTs that were treated with thrombin receptor activating peptide (TRAP-6, [10 μM, 30 min at RT]) and ionomycin [5 μM, 15 min at RT] (both Sigma-Aldrich, St. Louis, USA) served as positive controls. Afterwards, PLTs were resuspended with HBSS to a final volume of 500 μL and immediately assessed via flow cytometry ([FC]), Navios, Beckman-Coulter, Brea, USA).
To investigate the mechanisms of HIT antibody-induced changes on PLTs, […] wPLTs/PRP were pretreated with Fc-gamma-RIIA blocking monoclonal antibody (moAb) anti-CD32 (moAb IV.3; Stemcell™ technologies, Vancouver, Canada) or a monoclonal isotype control ([SC-2025] Santa Cruz Biotechnology, Dallas, USA) for 30 min at RT prior to HIT serum/IgG treatment.

[5] = test system: PRP from healthy individuals; assay: Procoagulant platelets in platelet rich plasma (PRP) with patient sera/HIT IgG, flow cytometry; format: cell-based; conditions: for procoagulant PLT formation by HIT IgG fractions: PRP
Procedure: IgG fractions were isolated from HIT as well as from control sera by the use of a commercially available IgG-purification-kit (Melon™-Gel IgG Spin Purification Kit, Thermo Fisher Scientific, Waltham, USA) as recommended by the manufacturers. In brief, heat inactivated serum was diluted 1:10 in purification buffer and incubated with the kit specific Gel IgG Purification Support over four cycles for 10 min. Subsequently, periodically performed centrifugation steps through a 10 μm pore size filter tube were performed for 1 min at 5000×g. The flow throw was collected into 100 kDa pore sized centrifugal filters (Amicon Ultra-4, Merck Millipore, Cork, Ireland) with subsequent concentration to the initial volume of the used serum sample via centrifugation (10-15 min, 2000×g, 4° C., with brake). IgG concentrations were measured by excitation using a NanoDrop One at a wavelength of […] (VWR, Bruchsal, Germany).
For determination of procoagulant platelets in PRP, sera were prepared as described above. For PRP preparation, venous blood from healthy individuals was withdrawn into vacutainers containing sodium citrate 0.105 M (3.2%) (BD, Plymouth, UK) and allowed to rest for 20 min at RT. PRP was prepared by centrifugation (20 min, 120 g, RT) and adjusted with autologous platelet poor plasma (PPP, [10 min, 2000 g, RT]) to a PLT count of 300×10^6/ml. […] Afterwards, samples were processed as described for washed PLTs and analysed by flow cytometry (FC). Test results were determined as fold increase of the percentage of double PS/CD62p positive events in platelets upon incubation with patients' sera compared to the baseline.
37.5 μl wPLTs/PRP were supplemented with 1 μl of 10 IUs heparin (final concentration 0.2 IUs) or 1 μl of 5000 IUs heparin (final concentration 100 IUs) and 5 μL serum/IgG from HIT patients or control serum/IgG. […] Afterwards, PLTs were resuspended with HBSS to a final volume of 500 μL and immediately assessed via flow cytometry ([FC]), Navios, Beckman-Coulter, Brea, USA).

Substance | mean optical density [OD] of IgG antibodies against PF4/heparin complexes (PF4/heparin complexes) [OD] | FI of MFI IgG binding to platelets ([1]; heparin at high concentrations (100 IU/ml), without heparin 4.39±1.15, p 0.016) [fold increase] | FI of MFI of IgG binding to platelets ([1]; heparin at low concentrations (0.2 U/mL), without heparin 4.39±1.15, p 0.688) [fold increase] | platelet activation by VITT sera in the presence of the additive [2] | FI CD62p/PS positive PLTs [3] [fold increase] | CD62p/PS positive PLTs, mean %±SEM ([4]; HIT sera with wPLTs, supratherapeutic (Hep. 100 IUs) doses of heparin) [%] | CD62p/PS positive PLTs, mean percent [mean %]±SEM ([4]; HIT sera with wPLTs, therapeutic (0.2 IUs) heparin, HC sera 1±0) [%] | generation of procoagulant platelets by patient sera in the presence of the additive [4] | procoagulant PLT formation by HIT IgG fractions ([5]; supratherapeutic (100 IUs) doses of heparin) | procoagulant PLT formation by HIT IgG fractions ([5]; therapeutic doses (0.2 IUs) heparin) | change in IgG binding to platelets in the presence of the additive ([1]; result in words) | Median time to aggregate ([2]; VITT sera with washed platelets, 0.2 IU/mL LMWH, 25 μg/mL PF4, mAb IV.3 or 30 mg/mL IVIG, buffer alone 5 min, observation time 45 min) [min] | procoagulant phenotype induced by diluted VITT sera ([3]; diluted sera (from 1:64), result in words) | procoagulant phenotype, sera from HIPA negative patients with PRP ([5]; in presence of PF4, when treated with 0.2 IU/ml Heparin (LMWH))
heparin | 0.176±0.073 | 1.51±0.66 | 3.60±2.01 | All reactions were inhibited | 1.92±0.96 | 1.18±0.28 | 44.99±6.26 | completely inhibited | not observed | showed the capability to induce procoagulant PLTs | – | – | – | –
PF4: small cytokine of the CXC chemokine family released from alpha-granules of activated platelets | – | – | – | only in the presence e of PF4 | 37.07±23.73 | – | – | increase of procoagulant platelets | – | – | Only one serum showed increased binding | 5 | only in the presence e of PF4 | Strong increase
